This data set in a line: Dry powder particle sizing using a Malvern Mastersizer. The class given is physicochemical. From the text:
The following materials were used in the examples: mannitol (Spectrum Chemicals, New Brunswick, N.J., unless otherwise indicated), TWEENTM 80 (Spectrum Chemicals, New Brunswick, N.J.), celecoxib (Onbio, Ontario, Canada), Plasdone-C 15 (International Specialty Products, Wayne, N.Y.), budesonide (Byron Chemical Company, Long Island, N.Y.), dipalmitoyl phosphatidylcholine (DPPC) (Chemi S.p.a., Milan, Italy, unless otherwise indicated), PLGA (Boehringer Ingelheim Fine Chemicals, Ingelheim, Germany), ammonium bicarbonate (Spectrum Chemicals, Gardenia, Calif.), methylene chloride (EM Science, Gibbstown, N.J.), Fluticasone propionate ([…]., Mumbai, India), and lactose (Pharmatose […], DMV International, The Netherlands). The TWEENTM 80 is hereinafter referred to as “Tween80.” The volume average diameter of lactose (Pharmatose […]) was determined to be approximately 68 μm by dry powder particle sizing using a Malvern Mastersizer (Malvern Instruments Ltd., United Kingdom).

The structures appear in SMILES notation.

Turning to `OC[C@H]1O[C@@H](O[C@H]2[C@H](O)[C@@H](O)C(O)O[C@@H]2CO)[C@H](O)[C@@H](O)[C@H]1O` (stereo partly shown) [lactose (Pharmatose 325M), lactose], the volume average diameter result is reported as “approximately 68 μm”.

Source of the values: patent US20070178166A1, “PROCESSES FOR MAKING PARTICLE-BASED PHARMACEUTICAL FORMULATIONS FOR PULMONARY OR NASAL ADMINISTRATION” (priority 2005, published 2007).
